This passage reports TGI results from PubChem BioAssay (NCI).

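Results reflect a 48-hour exposure of cells in 96-well plates to compound at five concentrations. TGI: concentration producing complete growth inhibition.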 Where only a bound is given, the exact number is not on record here.

One assay relates to CCRF-CEM leukemia. The assay can be described thus: inhibition of tumour cell growth, NCI panel, 48 h.
In turn, `CON(C)C(=O)C1CCCO1` (configuration not stated) had a TGI above 100 µM.
Turning to `O=C1OC(c2ccccc2)N(C(=O)c2ccccc2)C1Cc1ccc(OCc2ccccc2)cc1` (configuration not stated), the TGI was above 100 µM.
Compound `COc1ccc([C@H]2C=[N+]([O-])O[C@H](OC3CCCC3)[C@@H]2OC(C)=O)cc1OC` gave a TGI of 20.1 µM.
The compound `O=[N+]([O-])c1cccc2c(N=Nc3ccc4ccccc4c3O)c(O)cc(S(=O)(=O)O)c12` registered a TGI of 66.7 µM.

The next assay concerns UO-31 renal. In words: inhibition of tumour cell growth, NCI panel, 48 h.
The compound `CON(C)C(=O)C1CCCO1` (configuration not stated) returned a TGI above 100 µM.
Compound `O=C1OC(c2ccccc2)N(C(=O)c2ccccc2)C1Cc1ccc(OCc2ccccc2)cc1` (configuration not stated) gave a TGI above 100 µM.
The compound `COc1ccc([C@H]2C=[N+]([O-])O[C@H](OC3CCCC3)[C@@H]2OC(C)=O)cc1OC` had a TGI of 40.6 µM.
Consider `O=[N+]([O-])c1cccc2c(N=Nc3ccc4ccccc4c3O)c(O)cc(S(=O)(=O)O)c12`, for which the TGI came to 56.1 µM.

For the next assay, the system named is NCI-H522 lung. The assay can be described thus: inhibition of tumour cell growth, NCI panel, 48 h.
`CON(C)C(=O)C1CCCO1` (configuration not stated) returned a TGI above 100 µM.
Still for that read-out and setting: as for `COc1ccc([C@H]2C=[N+]([O-])O[C@H](OC3CCCC3)[C@@H]2OC(C)=O)cc1OC`, the figure is 17.9 µM; as for `O=[N+]([O-])c1cccc2c(N=Nc3ccc4ccccc4c3O)c(O)cc(S(=O)(=O)O)c12`, above 100 µM.

The subject of a further assay is MDA-MB-231 breast. The assay can be described thus: inhibition of tumour cell growth, NCI panel, 48 h.
The compound `CON(C)C(=O)C1CCCO1` (configuration not stated) returned a TGI above 100 µM.
The same measure, in the same setting: as for `O=C1OC(c2ccccc2)N(C(=O)c2ccccc2)C1Cc1ccc(OCc2ccccc2)cc1` (configuration not stated), the figure is 23.9 µM; as for `COc1ccc([C@H]2C=[N+]([O-])O[C@H](OC3CCCC3)[C@@H]2OC(C)=O)cc1OC`, 78.2 µM.

A further assay deals with MOLT-4 leukemia. The assay can be described thus: inhibition of tumour cell growth, NCI panel, 48 h.
Turning to `CON(C)C(=O)C1CCCO1` (configuration not stated), the TGI is above 100 µM.
`COc1ccc([C@H]2C=[N+]([O-])O[C@H](OC3CCCC3)[C@@H]2OC(C)=O)cc1OC` had a TGI above 100 µM.
`O=[N+]([O-])c1cccc2c(N=Nc3ccc4ccccc4c3O)c(O)cc(S(=O)(=O)O)c12` showed a TGI above 100 µM.

The test system of the next assay is TK-10 renal. The assay can be described thus: inhibition of tumour cell growth, NCI panel, 48 h.
With `CON(C)C(=O)C1CCCO1` (configuration not stated), the TGI was above 100 µM.
Turning to `O=C1OC(c2ccccc2)N(C(=O)c2ccccc2)C1Cc1ccc(OCc2ccccc2)cc1` (configuration not stated), the TGI was above 100 µM.
On to `COc1ccc([C@H]2C=[N+]([O-])O[C@H](OC3CCCC3)[C@@H]2OC(C)=O)cc1OC`, for which the TGI is 68.2 µM.
Turning to `O=[N+]([O-])c1cccc2c(N=Nc3ccc4ccccc4c3O)c(O)cc(S(=O)(=O)O)c12`, the TGI was above 100 µM.

The test system of the next assay is DU-145 prostate. The assay can be described thus: inhibition of tumour cell growth, NCI panel, 48 h.
Take `CON(C)C(=O)C1CCCO1` (configuration not stated): the TGI was above 100 µM.
For the compound `O=C1OC(c2ccccc2)N(C(=O)c2ccccc2)C1Cc1ccc(OCc2ccccc2)cc1` (configuration not stated), the TGI is above 100 µM.
Consider `COc1ccc([C@H]2C=[N+]([O-])O[C@H](OC3CCCC3)[C@@H]2OC(C)=O)cc1OC`, for which the TGI is 89.6 µM.

The subject of the next assay is M14 melanoma. The assay can be described thus: inhibition of tumour cell growth, NCI panel, 48 h.
`CON(C)C(=O)C1CCCO1` (configuration not stated) gave a TGI above 100 µM.
With `O=C1OC(c2ccccc2)N(C(=O)c2ccccc2)C1Cc1ccc(OCc2ccccc2)cc1` (configuration not stated), the TGI was above 100 µM.
In turn, `COc1ccc([C@H]2C=[N+]([O-])O[C@H](OC3CCCC3)[C@@H]2OC(C)=O)cc1OC` came in with a TGI of 44.4 µM.
The same measure, in the same setting: as for `O=[N+]([O-])c1cccc2c(N=Nc3ccc4ccccc4c3O)c(O)cc(S(=O)(=O)O)c12`, the figure is 51.2 µM.

The subject of the next assay is UACC-257 melanoma. In words: inhibition of tumour cell growth, NCI panel, 48 h.
Consider `CON(C)C(=O)C1CCCO1` (configuration not stated), for which the TGI is above 100 µM.
The compound `COc1ccc([C@H]2C=[N+]([O-])O[C@H](OC3CCCC3)[C@@H]2OC(C)=O)cc1OC` gave a TGI of 54.3 µM.
In the case of `O=[N+]([O-])c1cccc2c(N=Nc3ccc4ccccc4c3O)c(O)cc(S(=O)(=O)O)c12`, the TGI was above 100 µM.

A further assay relates to T-47D breast. The assay can be described thus: inhibition of tumour cell growth, NCI panel, 48 h.
The compound `CON(C)C(=O)C1CCCO1` (configuration not stated) registered a TGI above 100 µM.
On the same count and under the same terms, in the case of `O=C1OC(c2ccccc2)N(C(=O)c2ccccc2)C1Cc1ccc(OCc2ccccc2)cc1` (configuration not stated) it was above 100 µM.
Regarding `COc1ccc([C@H]2C=[N+]([O-])O[C@H](OC3CCCC3)[C@@H]2OC(C)=O)cc1OC`, the TGI stood at 53.2 µM.

The subject of a further assay is SN12C renal. In words: inhibition of tumour cell growth, NCI panel, 48 h.
`CON(C)C(=O)C1CCCO1` (configuration not stated) had a TGI above 100 µM.
For the compound `O=C1OC(c2ccccc2)N(C(=O)c2ccccc2)C1Cc1ccc(OCc2ccccc2)cc1` (configuration not stated), the TGI is above 100 µM.
With `O=[N+]([O-])c1cccc2c(N=Nc3ccc4ccccc4c3O)c(O)cc(S(=O)(=O)O)c12`, the TGI was above 100 µM.

The test system of another assay is SW-620 colon. In words: inhibition of tumour cell growth, NCI panel, 48 h.
In turn, `CON(C)C(=O)C1CCCO1` (configuration not stated) came in with a TGI above 100 µM.
`O=C1OC(c2ccccc2)N(C(=O)c2ccccc2)C1Cc1ccc(OCc2ccccc2)cc1` (configuration not stated) registered a TGI above 100 µM.
The compound `COc1ccc([C@H]2C=[N+]([O-])O[C@H](OC3CCCC3)[C@@H]2OC(C)=O)cc1OC` displayed a TGI of 53 µM.
On the same count and under the same terms, as for `O=[N+]([O-])c1cccc2c(N=Nc3ccc4ccccc4c3O)c(O)cc(S(=O)(=O)O)c12`, the figure is above 100 µM.

The next assay concerns SF-268 CNS. The assay can be described thus: inhibition of tumour cell growth, NCI panel, 48 h.
In the case of `CON(C)C(=O)C1CCCO1` (configuration not stated), the TGI is above 100 µM.
On to `O=C1OC(c2ccccc2)N(C(=O)c2ccccc2)C1Cc1ccc(OCc2ccccc2)cc1` (configuration not stated), for which the TGI was above 100 µM.
In the case of `COc1ccc([C@H]2C=[N+]([O-])O[C@H](OC3CCCC3)[C@@H]2OC(C)=O)cc1OC`, the TGI is above 100 µM.
Turning to `O=[N+]([O-])c1cccc2c(N=Nc3ccc4ccccc4c3O)c(O)cc(S(=O)(=O)O)c12`, the TGI was above 100 µM.

The test system of a further assay is PC-3 prostate. In words: inhibition of tumour cell growth, NCI panel, 48 h.
For `CON(C)C(=O)C1CCCO1` (configuration not stated), the TGI was above 100 µM.
As for `O=C1OC(c2ccccc2)N(C(=O)c2ccccc2)C1Cc1ccc(OCc2ccccc2)cc1` (configuration not stated), the TGI was above 100 µM.
The compound `COc1ccc([C@H]2C=[N+]([O-])O[C@H](OC3CCCC3)[C@@H]2OC(C)=O)cc1OC` displayed a TGI above 100 µM.
The same measure, in the same setting: in the case of `O=[N+]([O-])c1cccc2c(N=Nc3ccc4ccccc4c3O)c(O)cc(S(=O)(=O)O)c12` it was above 100 µM.

The next assay has as its system SK-MEL-28 melanoma. In words: inhibition of tumour cell growth, NCI panel, 48 h.
In turn, `CON(C)C(=O)C1CCCO1` (configuration not stated) had a TGI above 100 µM.
For `O=C1OC(c2ccccc2)N(C(=O)c2ccccc2)C1Cc1ccc(OCc2ccccc2)cc1` (configuration not stated), the TGI was above 100 µM.
The same measure, in the same setting: in the case of `COc1ccc([C@H]2C=[N+]([O-])O[C@H](OC3CCCC3)[C@@H]2OC(C)=O)cc1OC` it was 44.2 µM.
